Experimental data as given in patent publication US6232348A, “Hydroxymethyl derivatives of 2-amino-1,2,3,4-tetrahydronaphthalene as cardiovascular agent” (Zambon Group S.p.A., priority 1997, dated 2001).

Experiments:
[1] = test system: D1; assay: D1 activity on the rabbit splenic artery (RSA); details: rings contracted with U46619; agonistic activity at the peak of the effect; cumulative administration
Protocol: Evaluation of the D1 Activity on the Rabbit Splenic Artery (RSA)
Artery rings were prepared according to Semeraro et al., Naunyn. Schnied. Arch. Pharmacol., 1990, 342, 539. These were contracted with U46619 (9,11-dideoxy-11α,9α -epoxy-methanprostaglandine F2α) at a submaximal concentration of […]. The tested compounds were cumulatively administered.
As reference compound (S)-N-propyl-N-{6-[2-(2-methoxyphenoxy)-ethylamino]-hexyl}-5,6-dihydroxy-1,2,3,4-tetrahydro-2-naphthylamine dihydrochloride (Ref. A), described in example 6 of the international patent application No. WO 93/19036 was employed. Furthermore a compound of the invention was compared with its corresponding compound having in 5-position a hydroxy group in the place of a hydroxymethyl group. i.e. Compound 22 of the international patent application No. WO 96/08228, (S)-N-propyl-N-{6-[2-(4-methylsulfonylphenyl)-ethylamino]hexyl}-5,6-dihydroxy-1,2,3,4-tetrahydro-2-naphthylamine dihydrobromide (Ref. B). The agonistic activity was evaluated at the peak of the effect and expressed as potency ratio (EC50 of Ref. A/EC50 of the tested compound), as shown in Table 1.

[2] = test system: D2; assay: D2 activity in the rabbit ear artery (REA); parameters: species or system New Zealand rabbit; details: electrically stimulated artery rings; agonistic activity at the peak of the effect; cumulative administration
Protocol: Evaluation of the D2 Activity in the Rabbit Ear Artery (REA)
Artery rings were prepared following the method described by Steinsland et al., Science, 1978, 443, 199, modified as follows.
Male New Zealand rabbits (weighing 2.5-3 Kg) were sacrificed by a pentobarbital intravenous injection and bled. The central ear artery was cut into 3 mm-rings. The samples were placed into a 25 ml-bath containing a Krebs solution (mM/l): sodium chloride 118, potassium chloride 4.7, calcium chloride 2.5, magnesium sulphate 1.2, sodium hydrogenocarbonate 25, potassium biphosphate 1.2, glucose 11.1, balanced with oxygen 95%/carbon dioxide 5% and maintained at 35±1° C. The Krebs solution was added with EDTA (10 μM) to present the cathecolamine oxidation, with desipramine (0.1 μM) and corticosterone (30 μM) to stop the neuronal and extraneuronal cathecolamine re-uptake.
The samples were electrically stimulated (10 Hz, 1 msec., 40-80 mA, 500 msec long) at intervals of 5 minutes.
The tested compounds were cumulatively administered.
As reference compounds the reference compounds A and B above were employed.
The agonistic activity was evaluated at the peak of the effect and expressed as potency ratio (EC50 of Ref. A/EC50 of the tested compound), as shown in Table 1.

[3] = Hypotensive activity in the anaesthetized dog; type: in vivo; details: intraduodenal (oral) administration, anaesthetized Beagle dogs; 184 nmoles/kg (compound of the invention), 5.52 nmoles/kg (Ref. B), doses equally active i.v.; 0-360 min
Protocol: Evaluation of the Hypotensive Activity in the Dog
Beagle dogs were anhaestetized with sodium pentobarbital (30 mg/kg i.v.) and a catheter was put in their carotid artery to measure the blood pressure. The catheter was connected with a pressure transductor. The compounds were administered by a catheter put in the duodenum. The effect on the average blood pressure is expressed as average effect with respect to the test time (Eavg =AUC0-360 /minutes) according to what described by Fettner S. H. et al., Eur. J. Clin. Pharmacol., 48:351-359, 1995. As reference compound the reference compound B above (Ref. B) was used. The controls were treated with the vehicle only.
The doses used for the oral administration were selected on the basis of the hypotensive activity data obtained after intravenous administration.

[4] = Absolute oral bioavailability in the dog; type: in vivo; details: Beagle dogs (4), 1 mg/kg oral by gavage vs 0.2 mg/kg bolus, domperidone pretreatment
Protocol: Evaluation of the Absolute Oral Bioavailability
Four Beagle dogs were intramuscularly treated with 20 mg of domperidone (to avoid emesis) and, after 60 minutes, with a bolus of 0.2 mg/kg of a solution of the compound of example 13. The solution of this compound was prepared by dissolving 10 mg thereof in 100 μl of ethanol and 380 μl of 0.1N HCl, the resulting solution being brought to 10 ml with water. Appropriate volumes of this solution were administered to obtain the desired dose based on the dog weight.
Venous blood sample (3 ml) were collected before drug administration and the following times after dosing: 2.5, 5, 10, 15, 20, 30, 45, 60, 90, 120, 180, 240, 300 and 360 minutes.
After a washout period of 7 days, the same 4 Beagle dogs were intramuscularly treated with 20 mg of domperidone and, after 60 minutes, orally treated by gavage with the compound of Example 13 at the dose of 1 mg/kg. […]
The following pharmacokinetic parameters were determined by non-compartmental analysis from the individual plasma concentration of the compound of Example 13: […]
AUC(()-t), the area under the plasma concentration-time curve between time zero and the last concentration observed, estimated by the linear trapezoidal rule; Absolute bioavailability (F), the percentage of oral dose that is systemically available, calculated according to the following equation: [formula] […]

CCCN(CCCCCCNCCc1ccc(S(C)(=O)=O)cc1)[C@H]1CCc2c(ccc(O)c2CO)C1 [Example 7, (S)-N-propyl-N-(6-(2-(4-methylsulfonylphenyl)ethylamino)hexyl)-5-hydroxymethyl-6-hydroxy-1,2,3,4-tetrahydro-2-naphthylamine]
D1 activity (RSA), potency ratio (EC50 of Ref. A/EC50 of the tested compound) [1]: 2.5 | D2 activity (REA), potency ratio (EC50 of Ref. A/EC50 of the tested compound) [2]: 1.25 | average effect on blood pressure (Eavg = AUC0-360/minutes) [3]: -17.4±3.0 mmHg | Absolute oral bioavailability (F) ([4]; listed as Example 13, 1 mg/kg): 28-43% | bioavailability ([4]; dog, plasma, po, 1 mg/kg, read-out: Absolute oral bioavailability (F)): 38.8 ± 7.2%

CCCN(CCCCCCNCCOc1ccccc1OC)[C@H]1CCc2c(ccc(O)c2O)C1.Cl.Cl [Ref. A, (S)-N-propyl-N-{6-[2-(2-methoxyphenoxy)-ethylamino]-hexyl}-5,6-dihydroxy-1,2,3,4-tetrahydro-2-naphthylamine dihydrochloride]
D1 activity (RSA), potency ratio (EC50 of Ref. A/EC50 of the tested compound) [1]: 1 | D2 activity (REA), potency ratio (EC50 of Ref. A/EC50 of the tested compound) [2]: 1

Br.Br.CCCN(CCCCCCNCCc1ccc(S(C)(=O)=O)cc1)[C@H]1CCc2c(ccc(O)c2O)C1 [Ref. B, (S)-N-propyl-N-{6-[2-(4-methylsulfonylphenyl)-ethylamino]hexyl}-5,6-dihydroxy-1,2,3,4-tetrahydro-2-naphthylamine dihydrobromide]
D1 activity (RSA), potency ratio (EC50 of Ref. A/EC50 of the tested compound) [1]: 50 | D2 activity (REA), potency ratio (EC50 of Ref. A/EC50 of the tested compound) [2]: 3.3 | average effect on blood pressure (Eavg = AUC0-360/minutes) [3]: -3.5±3.9 mmHg
